Results: US10391100B2, “Combination of aurora kinase inhibitors and anti-CD20 antibodies” (Millennium Pharmaceuticals, Inc., priority 2008, dated 2019)
Marks after values point to notes of the source that are not given here.

Key:
Format in all cases: in vivo, human (in female SCID mice)
[1] = tested on: WSU-DLBCL2-Luc disseminated lymphoma; assay: Disseminated WSU-DLBCL2-Luc lymphoma model, second study (BID dosing); settings: for Median Survival / Maximum Percent Body Weight Change (%) / TGI Mean (%): 2nd study; for TGI Mean (%): Day 22; for number of mice remaining at the end of the study: Day 130; for Pct Decrease in AUC Relative to Mean Vehicle AUC: second study, PO, BID, log10 photon flux vs day AUC, Days 0 through 21
Description: (§1) The Ly19-Luc, WSU-DLBCL2-Luc and PHTX-22-06 models described in these studies are human DLBCL cell lines, transfected with luciferase. These models were grown in immununocomprimised mice subcutaneously on the flank, or disseminated throughout the body by tail vain injection.
(§2) Two separate studies were conducted in the WSU-DLBCL2-luc model.

[2] = tested on: Ly19 lymphoma (cell line Ly-19); assay: Sub-cutaneous Ly19 lymphoma model, tumor volume (Example 1); settings: for Pct Decrease in AUC Relative to Mean Vehicle AUC: Days 0 through 21; for Change in Slope: log tumor volume, slope (day 21 to 62) − slope (day 13 to 21)
Description: (§3) Tumor growth was monitored with vernier calipers. The mean tumor volume was calculated using the formula V=W^2×L/2.
P-values <0.05 were considered significant.

[3] = tested on: Ly19-Luc disseminated lymphoma; assay: Disseminated Ly19-Luc lymphoma model, Experiment #2 (Example 4)
Description: (§4) The in vivo experiments using the disseminated Ly19-Luc lymphoma model were performed in duplicate. […] Tumor volumes were estimated once weekly throughout the inoculation and treatment period using the Xenogen IVIS® imaging system (Xenogen Corporation, Alameda, Calif.). To image the mice, an intraperitoneal (IP) injection of […] (15 mg/ml), was administered 10 minutes prior to procedure and mice were anesthetized with 2% isofluorane 2-5 minutes throughout the scanning procedure. For Xenogen imaging, each mouse was imaged on dorsal and ventral views. The sum of 2 photon flux measurements was used for the analysis.
(§5) The antitumor effects of each treatment group were determined by calculating the percent TGI ([Δ control mean tumor volume−Δ treated mean tumor volume]×100/Δ control mean tumor volume) at the end of treatment. Mice were weighed once weekly for the duration of the study and the maximal percent body weight change was determined during the treatment period. Animals were monitored for survival up to 132 days following treatment. Animals were removed from the study when they reached humane endpoints (>20%, body weight loss or paralysis of either both front or hind limbs), the medial survival for each group was determined and the survival rate of treatment groups were compared to control. Treatment groups were evaluated to determine if the effects of combination treatment were synergistic, additive or sub-additive relative to control.
(§6) The photon flux data was log10 transformed, and these values over the treatment period were compared across treatment groups to assess if the differences in the trends over time were statistically significant. A mixed-effects linear regression model using a restricted maximum likelihood was fit to the data. An ANOVA test was performed to determine if there was a statistically significant difference between the treatment groups and control.
(§7) Log10-transformed fold change photon flux values (tumor burden) from baseline were also used to calculate AUC values for each animal. The AUC values from the mice in a given treatment group were then averaged together to generate mean AUC values and associated standard errors.
(§8) A synergy score calculation was used to address the question of whether the effects of the combination treatment were synergistic, additive, or sub-additive relative to the individual treatments.
(§9) To compare the tumor regrowth rates after stopping treatment, mixed-effects piecewise linear regression models were built separately for each treatment group with mice monitored beyond treatment period. All P-values <0.05 were called significant in this report.
(§10) The survival rates of the animals in each treatment group were plotted using Kaplan-Meier curves and the log rank test was used to compare survival rates among pairs of treatment groups.
Mice were dosed according to the following treatment groups:
Mice were weighed and tumor volumes were estimated with Xenogen signal (average photon flux) calculation once a week throughout the inoculation and the treatment period and after the treatment until the end of study.
Treatment started 7 days following the inoculation of tumor cells into the tail vein, with an average photon flux measurement of 1×10^7 on treatment Day 0.

[4] = tested on: primary diffuse large B-cell lymphoma PHTX-22-06; assay: Sub-cutaneous primary diffuse large B-cell lymphoma model PHTX-22-06, tumor volume (Example 3); settings: Compound III-1 20 mg/kg, PO, bid; Days 0 through 27
Description: Tumor growth was monitored with vernier calipers. The mean tumor volume was calculated using the formula V═W^2×L/2.
The animals were inoculated with 2×5 mm^3 tumor mass from primary […] tumor chunk at implant site Flank (trocar).
(§11) The statistical methodology used in these experiments was the same as that described in Example 1 above.

[5] = tested on: Ly19-Luc disseminated lymphoma; assay: Disseminated Ly19-Luc lymphoma model, Experiment #1 (Example 4); settings: for Maximum Percent Body Weight Change / TGI Mean / BW change (maximum body-weight change): Day 24; for TGI: calculated on Day 24; for number of mice remaining by the end of the study: Day 132
Description: as §4
as §5, with “Animals were monitored for survival up to 132 days following treatment.” left out
as §6, §7, §8, §9, §10

[6] = tested on: WSU-Luc lymphoma (cell line WSU-DLCL2); assay: Subcutaneous WSU-Luc lymphoma model, tumor volume (Example 2); settings: Compound III-1 3 mg/kg, PO, qd; Days 0 through 20
Description: as §3, §11

[7] = tested on: WSU-DLBCL2-Luc disseminated lymphoma; assay: Disseminated WSU-DLBCL2-Luc lymphoma model, first study (QD dosing); settings: for Median Survival / Maximum Percent Body Weight Change (%) / TGI Mean (%): 1st study; for Maximum Percent Body Weight Change (%) / TGI Mean (%): Day 21; for Pct Decrease in AUC Relative to Mean Vehicle AUC: first study, PO, QD, log10 photon flux vs day AUC, Days 0 through 21
Description: as §1, §2

[8] = Compound III-1 10 mg/kg po/BID × 21 days
[9] = Compound III-1 20 mg/kg po/QD × 21 days (dose holiday Day 9 to Day 13)
[10] = Compound III-1 3 mg/kg PO QD × 3 wks, Day 23
[11] = Compound III-1 3 mg/kg Po/QD × 21 days
[12] = Compound III-1 3 mg/kg po/QD × 21 days
[13] = Compound III-1 10 mg/kg Po/QD × 21 days
[14] = Compound III-1 10 mg/kg po/QD × 21 days

COc1cc(Nc2ncc3c(n2)-c2ccc(Cl)cc2C(c2c(F)cccc2OC)=NC3)ccc1C(=O)O [Compound III-1, 4-{[9-chloro-7-(2-fluoro-6-methoxyphenyl)-5H-pyrimido[5,4-d][2]benzazepin-2-yl]amino}-2-methoxybenzoic acid]
Median Survival [1, 8]: 70 days
Maximum Percent Body Weight Change (%) ([1]; Compound III-1 10 mg/kg po/BID × 21 days, Day 19): −3.9, Day 19%
TGI Mean (%) [1, 8]: 99.7, Day 22%
Median Survival [1, 9]: 111.5 days
Maximum Percent Body Weight Change (%) ([1]; Compound III-1 20 mg/kg po/QD × 21 days (dose holiday Day 9 to Day 13), Day 9): −8.9, Day 9%
TGI Mean (%) [1, 9]: 99.7, Day 22%
TGI ([1]; Compound III-1 alone 10 mg/kg BID): 99.7%
TGI ([1]; Compound III-1 alone 20 mg/kg BID): 99.7%
mean maximum body weight loss ([1]; Compound III-1 at 20 mg/kg BID, Day 9): 8.9%
number of mice remaining at the end of the study ([1]; 10 mg/kg single agent Compound III-1): 1 out of 10
number of mice remaining at the end of the study ([1]; 20 mg/kg Compound III-1 single agent): 5 out of 10
Pct Decrease in AUC Relative to Mean Vehicle AUC ([1]; Compound III-1 10 mg/kg): 94.0%
Pct Decrease in AUC Relative to Mean Vehicle AUC ([1]; Compound III-1 20 mg/kg): 96.6%
Pct Decrease in AUC Relative to Mean Vehicle AUC ([2]; Compound III-1 3 mg/kg qd): 22.9 Pct
Pct Decrease in AUC Relative to Mean Vehicle AUC ([2]; Compound III-1 10 mg/kg bid): 105.6 Pct
Pct Decrease in AUC Relative to Mean Vehicle AUC ([2]; Compound III-1 10 mg/kg qd): 79.3 Pct
Change in Slope ([2]; Compound III-1 10 mg/kg bid): 0.018
Change in Slope ([2]; Compound III-1 10 mg/kg qd): 0.040
Mean BW Day 0 ([3]; Compound III-1 3 mg/kg PO QD × 3 wks, Day 0 (baseline)): 19.2 g
Maximum BW Change (%) Day 22 ([3]; Compound III-1 3 mg/kg PO QD × 3 wks, Day 22): +3.1%
Mean BW Day 22 ([3]; Compound III-1 3 mg/kg PO QD × 3 wks, Day 22, in g (unit assumed)): 19.81
Mean Photon Flux (Day 23) [3, 10]: 2.34E+08
TGI Day 23 [3, 10]: 87.7%
tolerability ([3]; Compound III-1 at 3 mg/kg on a QD schedule): well tolerated
Mean AUC ([3]; log10 fold change photon flux vs day, up to Day 23, Compound III-1 3 mg/kg QD): 18.2
Pct Decrease in AUC Relative to Mean Vehicle AUC [4]: 79.3 Pct
Median Survival [5, 11]: 40 days
Maximum Percent Body Weight Change [5, 11]: +6.2, Day 24%
TGI Mean [5, 11]: 89.6, %
Median Survival (Days) [5, 12]: 40, p < 0.01^c Days
BW change (maximum body-weight change) [5, 12]: +6.2, Day 24%
TGI [5, 12]: 89.6, p < 0.001%
Median Survival [5, 13]: 63.5 days
Maximum Percent Body Weight Change [5, 13]: +3.3, Day 24%
TGI Mean [5, 13]: 100, %
Median Survival (Days) [5, 14]: 63.5, p < 0.01 Days
BW change (maximum body-weight change) [5, 14]: +3.3%, Day 24
TGI [5, 14]: 100, p < 0.001%
tolerability ([5]; Compound III-1 at 3 or 10 mg/kg on a QD schedule): well tolerated
number of mice remaining by the end of the study ([5]; single agent Compound III-1 3 mg/kg): 1 out of 10
number of mice remaining by the end of the study ([5]; single agent Compound III-1 10 mg/kg): 3 out of 10
Pct Decrease in AUC Relative to Mean Vehicle AUC [6]: 19.4 Pct
Median Survival [7, 12]: 46.5 days
Maximum Percent Body Weight Change (%) [7, 12]: −3.1, Day 21%
TGI Mean (%) [7, 12]: 50.9, Day 21%
Median Survival [7, 14]: 44 days
Maximum Percent Body Weight Change (%) [7, 14]: −4.5, Day 21%
TGI Mean (%) [7, 14]: 88.2, Day 21%
TGI ([7]; Compound III-1 alone 3 mg/kg QD): 50.9%
TGI ([7]; Compound III-1 alone 10 mg/kg QD): 88.2%
Pct Decrease in AUC Relative to Mean Vehicle AUC ([7]; Compound III-1 3 mg/kg): 21.1%
Pct Decrease in AUC Relative to Mean Vehicle AUC ([7]; Compound III-1 10 mg/kg): 42.0%
